Laboratory results published in patent US5989846A, “Assays to identify inducers of plant defense resistance” (Rutgers, The State University of New Jersey, priority 1995, dated 1999).

Key:
[1] = target: T1, catalase activity of SABP (Nicotiana tabacum, UniProt P49319); experiment: Catalase activity of highly purified SABP (luminol method); type: biochemical, tobacco; settings: 0.05 h; 1 mM SA or analogue, 1 mM H2O2, 500 ng highly purified SABP
T1 sequence (P49319 1-492): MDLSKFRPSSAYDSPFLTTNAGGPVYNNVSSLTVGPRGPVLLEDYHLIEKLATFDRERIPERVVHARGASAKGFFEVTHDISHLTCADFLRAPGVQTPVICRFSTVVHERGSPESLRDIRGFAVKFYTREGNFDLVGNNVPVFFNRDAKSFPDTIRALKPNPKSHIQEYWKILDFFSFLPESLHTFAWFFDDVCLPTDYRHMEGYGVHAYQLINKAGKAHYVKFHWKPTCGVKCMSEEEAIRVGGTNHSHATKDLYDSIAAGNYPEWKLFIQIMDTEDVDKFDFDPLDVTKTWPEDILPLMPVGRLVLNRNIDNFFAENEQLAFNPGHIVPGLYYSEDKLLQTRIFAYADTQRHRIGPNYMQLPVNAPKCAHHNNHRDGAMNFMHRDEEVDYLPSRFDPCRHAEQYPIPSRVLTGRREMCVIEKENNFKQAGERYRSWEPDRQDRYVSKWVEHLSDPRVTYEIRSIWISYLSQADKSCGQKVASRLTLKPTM
Method: Aliquots (50 μl) were removed from the assay mixture at 30 second intervals to assay for amount of H2 O2 remaining using the luminol method as has been described by Warm and Laties, Phytochem. […] The tube was placed in the measuring chamber and assay was initiated with automatic injection into the mixture of 100 μl of 0.5 mM K3 Fe(CN)6 in 0.2N NH4 OH, pH 9.5. Measurements were integrated over 5 second periods. H2 O2 was calculated from the standard curve constructed with known amounts of H2 O2. Rate constants of SABP catalase activity in the presence or absence of SA or its analogues were then calculated based on a first-order mechanism.

[2] = test system: H2 O2; experiment: Abundance of H2O2 in treated tobacco leaves; type: in vivo; settings: FIG. 11
Text: The abundance of H2 O2 increased in SA- or 3AT-treated tobacco leaves by 50-60% over the control levels observed in water-treated leaves. […] Thus, elevated levels of H2 O2, and in turn, enhanced oxidative stress in vivo, were consistent with inhibition of catalase activity by SA observed in vitro.

[3] = test system: salicylic acid binding protein; experiment: Competitive [14C] salicylic acid binding assay (spin-column); set-up: species or system tobacco; settings: [14C] salicylic acid 20 μM
Method: The 180 kDa native binding protein isolated was tested for binding affinity and specificity. A competitive assay was established using salicylic acid binding protein fractionated from plants as previously described.
A key element during the characterization and the purification process is a simple, inexpensive, sensitive and reliable method for determining the salicylic acid binding activity. For this purpose, spin-column exclusion chromatography was used to separate the bound [^14 C] salicylic acid (excluded) from the bulk free salicylic acid (included). Specifically, a 1.5 ml Eppendorf tube was punctured at the tip with a 20-gauge needle and a small amount of glass wool was added to cover the small hole. The tube was then filled with Bio-Gel P-6DG desalting gel (exclusion limit 6 KDa; purchased from Bio-Rad, Melville, N.Y.) which have been swollen in water. An alternative gel is Sephadex G-25 fine (from Pharmacia, Piscataway, N.J.). Excess liquid in the gel was removed and centrifuged for 5 minutes at full speed in a Dynamic centrifuge (Becton Dickinson). The process was then repeated several times until the gel filled the tube. After incubation of an aliquot of the extract or column fractions for 2 hr at 4° C. with 5 μM-20 μM [^14 C salicylic acid] (specifically radioactivity 55 Ci/mol; purchased from New England Nuclear), 150 μl of proteins binding sample was loaded onto the tube column, which was then rapidly centrifuged for 2 minutes at full speed and the solution of proteins and bound [^14 C-salicylic acid] that was excluded from the gel was collected into another tube that had been placed under the tube column during the centrifugation. One hundred microliters of this solution was then used to determine the amount of bound salicylic acid. […] For example, to determine the inhibitory effect of various salicylic acid analogues on salicylic acid binding activity, these individual analogues were included in the binding mixture containing both the protein and [^14 C] salicylic acid during the 2 hr incubation, and resulting binding activity was determined in comparison to the activity in the absence of these analogues. Likewise, to determine the effect of pH and antioxidants on the binding activity the protein sample was either dialyzed against a large volume of buffers with different pH or antioxidants were added to the protein sample to various concentrations and the resulting binding activities were then determined with the spin-column method in comparison with the activity determined in the absence of these treatments.

[4] = test system: resistance or PR gene expression; set-up: key: ++: indicates a high level of biological activity; +: indicates a lower level of biological activity; ±: indicates low, but detectable biological activity in some assays; -: indicates no biological activity; settings: Table 3; values reported in literature; cited from earlier work
[5] = test system: SABP; set-up: concentration or dose not given beside the values; settings: Table 6; previously published data (Chen et al. 1993); cited from earlier work
[6] = test system: ascorbate peroxidase; experiment: Ascorbate peroxidase activity in tobacco leaf extracts; type: biochemical, Nicotiana tabacum cv. Xanthi nc; settings: 200 μM compound, corrected for quenching of auto oxidation
In short: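 Soluble extracts from leaves of 6–8-week Nicotiana tabacum cv. Xanthi nc, desalted into 50 mM potassium phosphate pH 7 with 100 μM ascorbate, were assayed (30–50 μg protein) with or without 100 or 1000 μM SA or INA. Ascorbate oxidation followed as A290 decrease; means of three replicates.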

[7] = target: T2, bovine catalase (Bos taurus, UniProt P00432); settings: Kirkman and Gaetani 1984; cited from earlier work
T2 sequence (P00432 2-527 limits assumed): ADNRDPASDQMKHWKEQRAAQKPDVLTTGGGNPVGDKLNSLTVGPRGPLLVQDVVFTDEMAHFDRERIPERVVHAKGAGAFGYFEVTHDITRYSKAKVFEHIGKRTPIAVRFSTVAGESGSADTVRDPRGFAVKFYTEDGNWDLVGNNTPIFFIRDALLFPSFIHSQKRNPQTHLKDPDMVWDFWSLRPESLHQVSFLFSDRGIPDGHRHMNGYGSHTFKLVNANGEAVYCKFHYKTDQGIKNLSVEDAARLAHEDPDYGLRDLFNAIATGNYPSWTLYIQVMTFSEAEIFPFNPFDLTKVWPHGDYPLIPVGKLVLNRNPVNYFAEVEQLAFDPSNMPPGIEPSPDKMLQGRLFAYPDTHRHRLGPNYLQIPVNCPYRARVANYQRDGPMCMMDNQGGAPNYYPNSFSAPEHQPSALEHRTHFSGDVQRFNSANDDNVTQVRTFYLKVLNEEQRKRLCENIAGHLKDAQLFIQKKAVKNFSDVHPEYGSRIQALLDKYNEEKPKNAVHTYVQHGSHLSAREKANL

| SMILES | inhibition at 1000 µM [1] [%] | Increase in abundance of H2O2 over water-treated leaves [2] | Inhibition (%) 2× ([3]; 40 μM (2×) unlabeled competitor) [%] | Inhibition (%) 10× ([3]; 200 μM (10×) unlabeled competitor) [%] | Biological activity [4] | Inhibition (%) [14C]SA binding [5] [%] | % Inhibition of ascorbate peroxidase [6] [%] | Binding to bovine catalase [7] |
| --- | --- | --- | --- | --- | --- | --- | --- | --- |
| O=C(O)c1cccc(O)c1 [3-Hydroxybenzoic acid] | 3.1 | unable to enhance | -2 | 0 | - | 1 | 28 ± 7 |  |
| NC(=O)C1=CN([C@@H]2O[C@H](COP(=O)(O)OP(=O)(O)OC[C@H]3O[C@@H](n4cnc5c(N)ncnc54)[C@H](O)[C@@H]3O)[C@@H](O)[C@H]2O)C=CC1 [NADH, nicotinamide adenine dinucleotide] |  |  |  |  |  |  |  | tightly binds |
| NC(=O)C1=CN([C@@H]2O[C@H](COP(=O)(O)OP(=O)(O)OC[C@H]3O[C@@H](n4cnc5c(N)ncnc54)[C@H](OP(=O)(O)O)[C@@H]3O)[C@@H](O)[C@H]2O)C=CC1 [NADPH, nicotinamide adenine dinucleotide phosphate] |  |  |  |  |  |  |  | tightly binds |
